Experimental data as given in patent US4874856A, “3-(substituted)propenyl-7-(aminothiazolylacetamido) ceph-3-em-4-carboxylic acids and esters thereof” (Bristol-Myers Company, priority 1987, dated 1989).
Converted amounts (≈) assume the structure as drawn. Like-named read-outs stand apart in the source and are kept apart here.

Assays:
Experiment in all cases: In vitro MIC, Mueller-Hinton agar, inoculum 10^6 cells/ml
Assay type in all cases: cell-based
Proteus mirabilis = system: Proteus mirabilis
Text: (§1) Table 6 is a comparison of the in vitro antibacterial activities of Compound 29 and the vinyl homolog thereof FK-482 against clinically important pathogens. Thirty-seven organisms were more than 4-fold more susceptible to Compound 29 than to FK-482. FK-482 has the following formula and is described by Takaya, et al. in U.S. Pat. No. 4,559,334 patented Dec. 17, 1985 (filed Oct. 20, 1983). [drawing 14]
(§2) *; Geometric mean of MIC (μg/ml)
(§3) Mueller-Hinton agar Inoculum size; 10^6 cells/ml

Providencia rettgeri = system: Providencia rettgeri
Text: as §1, §2, §3

Enterobacter cloacae = system: Enterobacter cloacae
Text: as §1, §2, §3

Citrobacter freundii = system: Citrobacter freundii
Text: as §1, §2, §3

Enterobacter aerogenes = details: Klebsiella aerogenes
Text: as §1, §2, §3

Serratia species = system: Serratia species
Text: as §1, §2, §3

Morganella morganii = system: Morganella morganii
Text: as §1, §2, §3

Proteus vulgaris = system: Proteus vulgaris
Text: as §1, §2, §3

Serratia marcescens = system: Serratia marcescens
Text: as §1, §2, §3

C=CC1=C(C(=O)O)N2C(=O)[C@@H](NC(=O)/C(=N\O)c3csc(N)n3)[C@H]2SC1 [FK-482, reference compound]
MIC (Proteus mirabilis; (GM) of the Proteus mirabilis strains, read-out: Geometric mean of MIC): 0.14 mg/L (≈ 0.354 µM)
MIC (Proteus mirabilis; IFO3849, strain IFO 3849 MS-1, read-out: MIC): 0.2 mg/L (≈ 0.506 µM)
MIC (Proteus mirabilis; strain A 9554, read-out: MIC): 0.2 mg/L (≈ 0.506 µM)
MIC (Proteus mirabilis; strain A 9702, read-out: MIC): 0.1 mg/L (≈ 0.253 µM)
MIC (Proteus mirabilis; strain A 9716, read-out: MIC): 0.2 mg/L (≈ 0.506 µM)
MIC (Proteus mirabilis; strain A20119, read-out: MIC): 0.1 mg/L (≈ 0.253 µM)
MIC (Proteus mirabilis; strain A20342, read-out: MIC): 0.2 mg/L (≈ 0.506 µM)
MIC (Proteus mirabilis; strain A20454, read-out: MIC): 0.1 mg/L (≈ 0.253 µM)
MIC (Proteus mirabilis; strain A21222, read-out: MIC): 0.1 mg/L (≈ 0.253 µM)
MIC (Providencia rettgeri; (GM) of the Providencia rettgeri strains, read-out: Geometric mean of MIC): 0.07 mg/L (≈ 0.177 µM)
MIC (Providencia rettgeri; IFO3850, strain IFO 3850 MS-1, read-out: MIC): 0.013 mg/L (≈ 0.0329 µM)
MIC (Providencia rettgeri; strain A 9637, read-out: MIC): < 0.0063 mg/L
MIC (Providencia rettgeri; strain A15167 (first line), read-out: MIC): 0.013 mg/L (≈ 0.0329 µM)
MIC (Providencia rettgeri; strain A15167 (second line), read-out: MIC): 0.1 mg/L (≈ 0.253 µM)
MIC (Providencia rettgeri; strain A20645, read-out: MIC): 6.3 mg/L (≈ 15.9 µM)
MIC (Providencia rettgeri; strain A20915, read-out: MIC): 3.1 mg/L (≈ 7.84 µM)
MIC (Providencia rettgeri; strain A20920, read-out: MIC): 0.013 mg/L (≈ 0.0329 µM)
MIC (Providencia rettgeri; strain A20921, read-out: MIC): 0.025 mg/L (≈ 0.0632 µM)
MIC (Providencia rettgeri; strain A21205, read-out: MIC): 0.1 mg/L (≈ 0.253 µM)
MIC (Providencia rettgeri; strain A21270, read-out: MIC): 0.1 mg/L (≈ 0.253 µM)
MIC (Enterobacter cloacae; (GM) of the Enterobacter cloacae strains, read-out: Geometric mean of MIC): 21 mg/L (≈ 53.1 µM)
MIC (Enterobacter cloacae; strain A 9655, read-out: MIC): > 50 mg/L
MIC (Enterobacter cloacae; strain A 9659, read-out: MIC): > 50 mg/L
MIC (Enterobacter cloacae; strain A20344, read-out: MIC): > 50 mg/L
MIC (Enterobacter cloacae; strain A20364, read-out: MIC): 6.3 mg/L (≈ 15.9 µM)
MIC (Enterobacter cloacae; strain A20464, read-out: MIC): 3.1 mg/L (≈ 7.84 µM)
MIC (Enterobacter cloacae; strain A20650, read-out: MIC): 0.8 mg/L (≈ 2.02 µM)
MIC (Enterobacter cloacae; strain A22551, read-out: MIC): > 50 mg/L
MIC (Citrobacter freundii; (GM) of the Citrobacter freundii strains, read-out: Geometric mean of MIC): 4.1 mg/L (≈ 10.4 µM)
MIC (Citrobacter freundii; strain A21312, read-out: MIC): > 50 mg/L
MIC (Citrobacter freundii; strain A22140, read-out: MIC): 3.1 mg/L (≈ 7.84 µM)
MIC (Citrobacter freundii; strain A22141, read-out: MIC): 3.1 mg/L (≈ 7.84 µM)
MIC (Citrobacter freundii; strain A22142, read-out: MIC): 0.8 mg/L (≈ 2.02 µM)
MIC (Citrobacter freundii; strain A22160, read-out: MIC): 6.3 mg/L (≈ 15.9 µM)
MIC (Citrobacter freundii; strain A22161, read-out: MIC): 0.8 mg/L (≈ 2.02 µM)
MIC (Citrobacter freundii; strain A22166, read-out: MIC): 3.1 mg/L (≈ 7.84 µM)
MIC (Citrobacter freundii; strain A22175, read-out: MIC): 0.8 mg/L (≈ 2.02 µM)
MIC (Citrobacter freundii; strain A22176, read-out: MIC): 3.1 mg/L (≈ 7.84 µM)
MIC (Citrobacter freundii; strain A22177, read-out: MIC): 50 mg/L (≈ 126 µM)
MIC (Enterobacter aerogenes; (GM) of the Enterobacter aerogenes strains, read-out: Geometric mean of MIC): 9.8 mg/L (≈ 24.8 µM)
MIC (Enterobacter aerogenes; strain A20940, read-out: MIC): > 50 mg/L
MIC (Enterobacter aerogenes; strain A20941, read-out: MIC): 6.3 mg/L (≈ 15.9 µM)
MIC (Enterobacter aerogenes; strain A20943, read-out: MIC): 6.3 mg/L (≈ 15.9 µM)
MIC (Enterobacter aerogenes; strain A20958, read-out: MIC): 6.3 mg/L (≈ 15.9 µM)
MIC (Enterobacter aerogenes; strain A20961, read-out: MIC): 12.5 mg/L (≈ 31.6 µM)
MIC (Enterobacter aerogenes; strain A20966, read-out: MIC): 6.3 mg/L (≈ 15.9 µM)
MIC (Enterobacter aerogenes; strain A20971, read-out: MIC): 6.3 mg/L (≈ 15.9 µM)
MIC (Enterobacter aerogenes; strain A20985, read-out: MIC): > 50 mg/L
MIC (Enterobacter aerogenes; strain A20994, read-out: MIC): 25 mg/L (≈ 63.2 µM)
MIC (Enterobacter aerogenes; strain A20996, read-out: MIC): 3.1 mg/L (≈ 7.84 µM)
MIC (Enterobacter aerogenes; strain A21013, read-out: MIC): 6.3 mg/L (≈ 15.9 µM)
MIC (Enterobacter aerogenes; strain A21036, read-out: MIC): 50 mg/L (≈ 126 µM)
MIC (Enterobacter aerogenes; strain A21037, read-out: MIC): 3.1 mg/L (≈ 7.84 µM)
MIC (Enterobacter aerogenes; strain A21038, read-out: MIC): 1.6 mg/L (≈ 4.05 µM)
MIC (Enterobacter aerogenes; strain A21039, read-out: MIC): 6.3 mg/L (≈ 15.9 µM)
MIC (Enterobacter aerogenes; strain A21043, read-out: MIC): 25 mg/L (≈ 63.2 µM)
MIC (Enterobacter aerogenes; strain A21044, read-out: MIC): 25 mg/L (≈ 63.2 µM)
MIC (Enterobacter aerogenes; strain A21118, read-out: MIC): > 50 mg/L
MIC (Enterobacter aerogenes; strain A21120, read-out: MIC): 6.3 mg/L (≈ 15.9 µM)
MIC (Enterobacter aerogenes; strain A21130-1, read-out: MIC): 6.3 mg/L (≈ 15.9 µM)
MIC (Enterobacter aerogenes; strain A21131, read-out: MIC): 6.3 mg/L (≈ 15.9 µM)
MIC (Enterobacter aerogenes; strain A21152, read-out: MIC): 1.6 mg/L (≈ 4.05 µM)
MIC (Enterobacter aerogenes; strain A21155, read-out: MIC): 6.3 mg/L (≈ 15.9 µM)
MIC (Enterobacter aerogenes; strain A21158, read-out: MIC): 6.3 mg/L (≈ 15.9 µM)
MIC (Enterobacter aerogenes; strain A21503, read-out: MIC): 6.3 mg/L (≈ 15.9 µM)
MIC (Serratia species; (GM) of the Serratia species strains, read-out: Geometric mean of MIC): > 50 mg/L
MIC (Serratia species; strain 6-330, read-out: MIC): 25 mg/L (≈ 63.2 µM)
MIC (Serratia species; strain 6-427, read-out: MIC): 25 mg/L (≈ 63.2 µM)
MIC (Serratia species; strain 6-920, read-out: MIC): > 50 mg/L
MIC (Serratia species; strain 7-255, read-out: MIC): > 50 mg/L
MIC (Serratia species; strain 7-454, read-out: MIC): > 50 mg/L
MIC (Serratia species; strain 7-2322, read-out: MIC): > 50 mg/L
MIC (Serratia species; strain 8-185, read-out: MIC): > 50 mg/L
MIC (Serratia species; strain 8-513, read-out: MIC): > 50 mg/L
MIC (Serratia species; strain 8-785, read-out: MIC): > 50 mg/L
MIC (Serratia species; strain 8-1537, read-out: MIC): > 50 mg/L
MIC (Serratia species; strain 9-50, read-out: MIC): > 50 mg/L
MIC (Serratia species; strain 9-690, read-out: MIC): > 50 mg/L
MIC (Morganella morganii; (GM) of the Morganella morganii strains, read-out: Geometric mean of MIC): 25 mg/L (≈ 63.2 µM)
MIC (Morganella morganii; IFO3843, strain IFO 3843 MS-1, read-out: MIC): 12.5 mg/L (≈ 31.6 µM)
MIC (Morganella morganii; strain A 9636, read-out: MIC): > 50 mg/L
MIC (Morganella morganii; strain A20455, read-out: MIC): 12.5 mg/L (≈ 31.6 µM)
MIC (Proteus vulgaris; (GM) of the Proteus vulgaris strains, read-out: Geometric mean of MIC): 6.3 mg/L (≈ 15.9 µM)
MIC (Proteus vulgaris; strain A 9436, read-out: MIC): 0.4 mg/L (≈ 1.01 µM)
MIC (Proteus vulgaris; strain A 9526, read-out: MIC): 25 mg/L (≈ 63.2 µM)
MIC (Proteus vulgaris; strain A 9699, read-out: MIC): 25 mg/L (≈ 63.2 µM)
MIC (Proteus vulgaris; strain AKH-26, read-out: MIC): > 50 mg/L
MIC (Proteus vulgaris; strain HX-19 MS-1, read-out: MIC): 0.8 mg/L (≈ 2.02 µM)
MIC (Proteus vulgaris; strain OX-19 MS-1, read-out: MIC): 3.1 mg/L (≈ 7.84 µM)
MIC (Serratia marcescens; (GM) of the Serratia marcescens strains, read-out: Geometric mean of MIC): 31 mg/L (≈ 78.4 µM)
MIC (Serratia marcescens; strain A20019, read-out: MIC): 12.5 mg/L (≈ 31.6 µM)
MIC (Serratia marcescens; strain A20222, read-out: MIC): 25 mg/L (≈ 63.2 µM)
MIC (Serratia marcescens; strain A20333, read-out: MIC): > 50 mg/L
MIC (Serratia marcescens; strain A20334, read-out: MIC): > 50 mg/L
MIC (Serratia marcescens; strain A20335, read-out: MIC): 12.5 mg/L (≈ 31.6 µM)
MIC (Serratia marcescens; strain A20336, read-out: MIC): 12.5 mg/L (≈ 31.6 µM)
MIC (Serratia marcescens; strain A20442, read-out: MIC): 3.1 mg/L (≈ 7.84 µM)
MIC (Serratia marcescens; strain A20459, read-out: MIC): > 50 mg/L
MIC (Serratia marcescens; strain A20460, read-out: MIC): 50 mg/L (≈ 126 µM)
MIC (Serratia marcescens; strain A20461, read-out: MIC): > 50 mg/L
